Experimental data reported in ChEMBL document CHEMBL1131659, “Synthesis, SAR and pharmacology of CP-293,019: a potent, selective dopamine D4 receptor antagonist” (Bioorg Med Chem Lett, 1998).
pIC50, pKi: −log10 of the molar value.

Legend:
[1] = tested on: Rattus norvegicus; assay: Compound was tested for spontaneous locomotor activity in nonhabituated rats when administered po; type: functional; conditions: read-out: ID50 (the source's name)
[2] = The compound was tested In Vitro for half life in human liver microsomes.; type: ADME, Microsome
[3] = target: 5-hydroxytryptamine receptor 2A (Homo sapiens, UniProt P28223); assay: In vitro binding affinity against 5-hydroxytryptamine 2A receptor in CHO cells; type: cell-based
Chain of 5-hydroxytryptamine receptor 2A (P28223 whole entry): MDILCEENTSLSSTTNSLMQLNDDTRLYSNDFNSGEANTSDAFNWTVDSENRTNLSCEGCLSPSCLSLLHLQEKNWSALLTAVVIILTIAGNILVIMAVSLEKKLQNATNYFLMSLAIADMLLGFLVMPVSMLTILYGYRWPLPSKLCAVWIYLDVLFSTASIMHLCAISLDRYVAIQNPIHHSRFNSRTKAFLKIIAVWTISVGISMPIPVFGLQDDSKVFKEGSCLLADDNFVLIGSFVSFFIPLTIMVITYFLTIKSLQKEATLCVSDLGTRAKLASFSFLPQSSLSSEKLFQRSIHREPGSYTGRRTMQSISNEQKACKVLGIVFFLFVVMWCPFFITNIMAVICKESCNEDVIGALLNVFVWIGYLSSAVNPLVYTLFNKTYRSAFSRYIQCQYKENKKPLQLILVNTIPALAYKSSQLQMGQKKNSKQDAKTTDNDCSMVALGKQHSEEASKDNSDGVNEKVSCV

[4] = tested on: Rattus norvegicus; assay: in vivo for inhibition against hyperactivity induced by apomorphine (1.78 mg/kg) in habituated rats by oral administration; type: functional; conditions: read-out: ID50 (the source's name)
[5] = target: D(3) dopamine receptor (Homo sapiens, UniProt P35462); assay: In vitro binding affinity against human D3 dopamine receptor in CHO cells using [3H]spiperone; type: cell-based
Chain of D(3) dopamine receptor (P35462 whole entry): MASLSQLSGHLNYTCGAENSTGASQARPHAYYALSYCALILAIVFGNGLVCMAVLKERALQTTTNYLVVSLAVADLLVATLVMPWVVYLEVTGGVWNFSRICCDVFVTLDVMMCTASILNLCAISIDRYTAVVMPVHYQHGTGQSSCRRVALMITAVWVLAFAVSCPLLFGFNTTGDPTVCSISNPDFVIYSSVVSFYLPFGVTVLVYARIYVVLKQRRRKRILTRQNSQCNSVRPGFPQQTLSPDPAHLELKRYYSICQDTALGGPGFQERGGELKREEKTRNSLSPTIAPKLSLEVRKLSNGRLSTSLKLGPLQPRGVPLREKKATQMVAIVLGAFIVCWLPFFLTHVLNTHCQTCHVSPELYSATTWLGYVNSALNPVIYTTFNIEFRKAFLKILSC

[6] = tested on: Rattus norvegicus; assay: in vivo for inhibition against hyperactivity induced by apomorphine (1.78 mg/kg) in habituated rats by subcutaneous administration; type: functional; conditions: sc, read-out: ID50 (the source's name)
[7] = tested on: Rattus norvegicus; assay: Compound was tested for inhibition of APO-induced blockade of prepulse inhibition in rats when administered sc; type: functional; conditions: read-out: ID50 (the source's name)
[8] = target: T1, 5-hydroxytryptamine receptor 1A (Mus musculus, UniProt Q64264); assay: In vitro binding affinity against 5-hydroxytryptamine 1A receptor in CHO cells; type: cell-based
T1 sequence (Q64264 whole entry): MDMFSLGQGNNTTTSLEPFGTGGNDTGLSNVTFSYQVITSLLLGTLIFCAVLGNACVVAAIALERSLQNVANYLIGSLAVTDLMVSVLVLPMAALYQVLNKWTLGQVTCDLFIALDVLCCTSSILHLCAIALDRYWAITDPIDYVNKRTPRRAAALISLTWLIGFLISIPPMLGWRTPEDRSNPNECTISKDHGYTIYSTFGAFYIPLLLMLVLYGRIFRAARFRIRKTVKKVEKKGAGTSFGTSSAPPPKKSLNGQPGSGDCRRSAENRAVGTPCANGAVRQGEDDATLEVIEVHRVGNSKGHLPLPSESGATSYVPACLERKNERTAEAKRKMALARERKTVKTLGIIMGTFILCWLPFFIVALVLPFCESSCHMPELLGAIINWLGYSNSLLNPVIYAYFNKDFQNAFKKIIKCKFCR

[9] = In vivo percentage mean absolute bioavailability of compound in rat after an oral dose of 10 mg/kg (in water, N=4); type: ADME, organism-based
[10] = In vivo maximum concentration of compound in rat plasma after a oral dose of 10 mg/kg (in water, N=4); type: ADME, organism-based; design: dose 10 mg/kg, route oral
[11] = target: T2, D(4) dopamine receptor (Homo sapiens, UniProt P21917); assay: biochemical
T2 sequence (P21917 whole entry): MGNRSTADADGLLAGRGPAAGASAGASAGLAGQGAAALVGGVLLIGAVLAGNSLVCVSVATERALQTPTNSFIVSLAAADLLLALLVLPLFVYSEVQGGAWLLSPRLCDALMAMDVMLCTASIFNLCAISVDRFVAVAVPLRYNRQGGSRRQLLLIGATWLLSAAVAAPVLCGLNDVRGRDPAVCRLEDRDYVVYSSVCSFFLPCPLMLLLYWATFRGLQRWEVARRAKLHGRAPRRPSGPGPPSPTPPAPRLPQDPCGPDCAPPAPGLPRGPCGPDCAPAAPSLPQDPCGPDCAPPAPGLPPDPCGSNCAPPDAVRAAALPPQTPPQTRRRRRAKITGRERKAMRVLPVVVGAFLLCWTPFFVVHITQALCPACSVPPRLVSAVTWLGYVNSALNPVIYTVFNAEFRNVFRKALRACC
Description: In vitro binding affinity at human D4 dopamine receptor in CHO cells by [3H]spiperone displacement.

[12] = tested on: Rattus norvegicus; assay: Compound was tested for antagonistic activity against APO-induced stereotypy in rats when administered po; type: functional; conditions: read-out: ID50 (the source's name)
[13] = In vivo half life of compound in rat plasma after a oral dose of 10 mg/kg (in water, N=4); type: ADME, organism-based; design: dose 10 mg/kg, route oral

Row | Structure (SMILES) | pKi [11] | further results
1 | Fc1ccc(OC[C@@H]2CC[C@H]3CN(c4ncc(F)cn4)CCN3C2)cc1 | 8.47 | ED50 [1]: > 56 mg/kg; half-life [2]: 12.2 min; pIC50 [3]: 6.82; ED50 [4]: 13.3 mg/kg; pKi [5]: < 5.70; ED50 [6]: 10 mg/kg; ED50 [7]: 17.8 mg/kg; pIC50 [8]: 6.74; bioavailability [9]: 93%; Cmax [10]: 730 ng/mL; ED50 [12]: > 56 mg/kg; half-life [13]: 270 min
2 | Fc1ccc(OC[C@@H]2CC[C@H]3CN(c4ccc(Cl)cn4)CCN3C2)cc1 | 8.49 | –
3 | c1ccc(OC[C@@H]2CC[C@H]3CN(c4ncccn4)CCN3C2)cc1 | 8.46 | half-life [2]: 3 min
4 | Fc1ccc(OC[C@@H]2CC[C@H]3CN(c4ccc(F)cc4)CCN3C2)cc1 | 8.28 | –
5 | Fc1ccc(OC[C@H]2CC[C@H]3CN(c4ncc(F)cn4)CCN3C2)cc1 | 8.70 | –
6 | CC(=O)Nc1ccc(OC[C@@H]2CC[C@H]3CN(c4ncccn4)CCN3C2)cc1 | 6.50 | –
7 | c1ccc(OCC2CCC3CN(c4ncccn4)CCN3C2)cc1 (stereo unspecified) | 8.42 | –
8 | c1ccc(OC[C@@H]2CC[C@H]3CN(c4ccccn4)CCN3C2)cc1 | 8.77 | –
9 | c1ccc(OC[C@H]2CC[C@H]3CN(c4ncccn4)CCN3C2)cc1 (stereo in doubt; 3a) | 8.39 | –
10 | COc1ccc(OC[C@@H]2CC[C@H]3CN(c4ncccn4)CCN3C2)cc1 | 7.74 | –
11 | CC(C)(C)c1ccc(OC[C@@H]2CC[C@H]3CN(c4ncccn4)CCN3C2)cc1 | 7.70 | –
12 | Fc1ccc(OC[C@@H]2CC[C@@H]3CN(c4ncc(F)cn4)CCN3C2)cc1 | 7.41 | –
13 | c1ccc(OC[C@@H]2CC[C@H]3CN(c4ccccc4)CCN3C2)cc1 | 8.80 | –
14 | Fc1ccc(OC[C@@H]2CC[C@H]3CN(c4ncccn4)CCN3C2)cc1 | 8.55 | half-life [2]: 3.6 min
15 | Fc1ccc(OC[C@H]2CC[C@@H]3CN(c4ncc(F)cn4)CCN3C2)cc1 | 6.97 | –
16 | COC(=O)c1ccc(OC[C@@H]2CC[C@H]3CN(c4ncccn4)CCN3C2)cc1 | 6.90 | –
17 | c1ccc(OC[C@H]2CC[C@H]3CN(c4ncccn4)CCN3C2)cc1 (stereo in doubt; 3b) | 8.77 | –
